{"source": "patent US20250326749A1", "about": "“COMPOUNDS, COMPOSITIONS, AND METHODS OF USING THEREOF” (Sionna Therapeutics Inc., priority 2022, published 2025)"}
{"target": "T1, ΔF508-CFTR (Homo sapiens, UniProt P13569, DEL508-508)", "T1 construct": "expressed in transfected cells; host or cells: CFSMEo- (human CF submucosal gland epithelial cells, ΔF508/Q2X), transiently transfected by nucleofection", "T1 sequence (P13569 with tags, fused parts or gaps DEL508-508)": "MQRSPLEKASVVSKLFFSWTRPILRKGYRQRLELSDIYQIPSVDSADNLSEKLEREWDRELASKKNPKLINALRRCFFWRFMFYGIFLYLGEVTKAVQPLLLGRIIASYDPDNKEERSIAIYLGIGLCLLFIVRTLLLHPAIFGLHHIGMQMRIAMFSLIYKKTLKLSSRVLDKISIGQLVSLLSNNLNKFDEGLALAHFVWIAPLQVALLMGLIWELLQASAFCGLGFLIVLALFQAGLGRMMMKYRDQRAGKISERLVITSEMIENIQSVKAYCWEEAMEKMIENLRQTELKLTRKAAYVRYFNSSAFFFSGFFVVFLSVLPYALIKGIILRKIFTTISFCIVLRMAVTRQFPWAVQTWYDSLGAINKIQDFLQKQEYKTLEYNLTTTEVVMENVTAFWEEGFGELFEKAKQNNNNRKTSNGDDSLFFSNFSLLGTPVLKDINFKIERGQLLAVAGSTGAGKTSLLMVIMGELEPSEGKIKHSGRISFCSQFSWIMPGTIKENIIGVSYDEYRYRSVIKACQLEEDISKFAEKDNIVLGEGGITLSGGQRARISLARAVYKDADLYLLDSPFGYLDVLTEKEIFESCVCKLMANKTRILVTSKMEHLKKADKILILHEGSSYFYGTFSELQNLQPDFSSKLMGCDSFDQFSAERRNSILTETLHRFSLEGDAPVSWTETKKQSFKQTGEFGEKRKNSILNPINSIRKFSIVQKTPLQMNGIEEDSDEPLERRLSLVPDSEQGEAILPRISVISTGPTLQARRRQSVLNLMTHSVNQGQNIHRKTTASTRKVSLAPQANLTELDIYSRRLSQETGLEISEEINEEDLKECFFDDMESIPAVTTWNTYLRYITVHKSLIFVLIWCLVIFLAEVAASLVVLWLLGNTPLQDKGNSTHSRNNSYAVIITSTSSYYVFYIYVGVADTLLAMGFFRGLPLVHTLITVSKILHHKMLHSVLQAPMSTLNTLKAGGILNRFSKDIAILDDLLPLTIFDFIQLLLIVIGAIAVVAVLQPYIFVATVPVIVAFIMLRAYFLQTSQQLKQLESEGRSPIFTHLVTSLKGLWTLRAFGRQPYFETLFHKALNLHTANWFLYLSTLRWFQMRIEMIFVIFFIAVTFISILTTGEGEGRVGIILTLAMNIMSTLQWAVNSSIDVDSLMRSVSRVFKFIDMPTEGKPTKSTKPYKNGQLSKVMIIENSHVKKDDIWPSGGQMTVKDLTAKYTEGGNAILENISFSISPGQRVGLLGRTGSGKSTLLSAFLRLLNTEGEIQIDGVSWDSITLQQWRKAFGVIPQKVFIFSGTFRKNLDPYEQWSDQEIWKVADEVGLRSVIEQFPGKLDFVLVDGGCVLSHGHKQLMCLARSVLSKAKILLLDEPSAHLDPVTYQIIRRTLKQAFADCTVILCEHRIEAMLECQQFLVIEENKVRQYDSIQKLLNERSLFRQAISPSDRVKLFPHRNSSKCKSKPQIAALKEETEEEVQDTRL", "experiment": "ΔF508-CFTR-HRP trafficking assay (cell surface expression of ΔF508-CFTR)", "assay_type": "cell-based", "conditions": "CFSMEo- cells transiently transfected with ΔF508-CFTR-HRP; test agent 3 μM, 48 h; HRP chemiluminescence", "summary_of_the_method": "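Surface-expressed ΔF508-CFTR measured via extracellular HRP tag: cell-impermeable chemiluminescent substrate, 5 min, signal normalized to 0.3% DMSO vehicle.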"}
{"molecule": "C[C@@H](Oc1cc(-n2nc(C(F)(F)F)c3c2C(OC24CC(C(=O)O)(C2)C4)CCC3)ccn1)c1ccc2c(c1)OC(F)(F)O2", "note": "(stereo partly drawn) [Example 40]", "RLUs: ΔF508-CFTR-HRP trafficking data normalized to the vehicle treated control (0.3% DMSO)": "A (RLU 5.0 μM-10 μM)"}
{"molecule": "C[C@@H](Oc1cccc(-n2nc(C(F)(F)F)c3c2C(OC24CC(C(=O)O)(C2)C4)CCC3)c1)c1ccc2c(c1)OC(F)(F)O2", "note": "(stereo partly drawn) [Example 41, 3-[[1-[3-[(1R)-1-(2,2-difluoro-1,3-benzodioxol-5-yl)ethoxy]phenyl]-3-(trifluoromethyl)-4,5,6,7-tetrahydroindazol-7-yl]oxy]bicyclo[1.1.1]pentane-1-carboxylic acid]", "RLUs: ΔF508-CFTR-HRP trafficking data normalized to the vehicle treated control (0.3% DMSO)": "A (RLU 5.0 μM-10 μM)"}
{"molecule": "C[C@H](Oc1cc(-n2nc(C(F)(F)F)c3c2[C@@H](OC24CC(C(=O)O)(C2)C4)CCC3)ccn1)c1ccc2c(c1)OC(F)(F)O2", "note": "[Example 51]", "RLUs: ΔF508-CFTR-HRP trafficking data normalized to the vehicle treated control (0.3% DMSO)": "A (RLU 5.0 μM-10 μM)"}
{"molecule": "C[C@H](Oc1cc(-n2nc(C(F)(F)F)c3c2[C@H](OC24CC(C(=O)O)(C2)C4)CCC3)ccn1)c1ccc2c(c1)OC(F)(F)O2", "note": "[Example 52, 3-[[(7R)-1-[2-[(1S)-1-(2,2-difluoro-1,3-benzodioxol-5-yl)ethoxy]-4-pyridyl]-3-(trifluoromethyl)-4,5,6,7-tetrahydroindazol-7-yl]oxy]bicyclo[1.1.1]pentane-1-carboxylic acid]", "RLUs: ΔF508-CFTR-HRP trafficking data normalized to the vehicle treated control (0.3% DMSO)": "C (RLU 0.0 μM-3.5 μM)"}
{"molecule": "C[C@H](Oc1cncc(-n2nc(C(F)(F)F)c3c2C(Nc2ccc(C(=O)O)cc2)CCC3)c1)c1ccc2c(c1)OC(F)(F)O2", "note": "(stereo partly drawn) [Example 69, 4-[[1-[5-[(1S)-1-(2,2-difluoro-1,3-benzodioxol-5-yl)ethoxy]-3-pyridyl]-3-(trifluoromethyl)-4,5,6,7-tetrahydroindazol-7-yl]amino]benzoic acid]", "RLUs: ΔF508-CFTR-HRP trafficking data normalized to the vehicle treated control (0.3% DMSO)": "B (RLU 3.5 μM-5.0 μM)"}
{"molecule": "C[C@H](Oc1cccc(-n2nc(C(F)(F)F)c3c2C(Sc2ccc(C(=O)O)cc2)CCC3)c1)c1ccc2c(c1)OC(F)(F)O2", "note": "(stereo partly drawn) [Example 70, 4-((1-(3-((S)-1-(2,2-difluorobenzo[d][1,3]dioxol-5-yl)ethoxy)phenyl)-3-(trifluoromethyl)-4,5,6,7-tetrahydro-1H-indazol-7-yl)thio)benzoic acid]", "RLUs: ΔF508-CFTR-HRP trafficking data normalized to the vehicle treated control (0.3% DMSO)": "A (RLU 5.0 μM-10 μM)"}
{"molecule": "C[C@H](Oc1cccc(-n2nc(C(F)(F)F)c3c2C(S(=O)(=O)c2ccc(C(=O)O)cc2)CCC3)c1)c1ccc2c(c1)OC(F)(F)O2", "note": "(stereo partly drawn) [Example 71, 4-[[1-[3-[(1S)-1-(2,2-difluoro-1,3-benzodioxol-5-yl)ethoxy]phenyl]-3-(trifluoromethyl)-4,5,6,7-tetrahydroindazol-7-yl]sulfonyl]benzoic acid]", "RLUs: ΔF508-CFTR-HRP trafficking data normalized to the vehicle treated control (0.3% DMSO)": "C (RLU 0.0 μM-3.5 μM)"}
{"molecule": "CC(Sc1cccc(-n2nc(C(F)(F)F)c3c2C(Oc2ccc(C(=O)O)cc2)CCC3)c1)c1ccc2c(c1)OC(F)(F)O2", "note": "(stereo not drawn) [Example 116, 4-[[1-[3-[1-(2,2-difluoro-1,3-benzodioxol-5-yl)ethylsulfanyl]phenyl]-3-(trifluoromethyl)-4,5,6,7-tetrahydroindazol-7-yl]oxy]benzoic acid]", "RLUs: ΔF508-CFTR-HRP trafficking data normalized to the vehicle treated control (0.3% DMSO)": "B (RLU 3.5 μM-5.0 μM)"}
{"molecule": "CC(c1ccc2c(c1)OC(F)(F)O2)[S+]([O-])c1cccc(-n2nc(C(F)(F)F)c3c2C(Oc2ccc(C(=O)O)cc2)CCC3)c1", "note": "(stereo not drawn) [Example 117, 4-[[1-[3-[1-(2,2-difluoro-1,3-benzodioxol-5-yl)ethylsulfinyl]phenyl]-3-(trifluoromethyl)-4,5,6,7-tetrahydroindazol-7-yl]oxy]benzoic acid]", "RLUs: ΔF508-CFTR-HRP trafficking data normalized to the vehicle treated control (0.3% DMSO)": "C (RLU 0.0 μM-3.5 μM)"}
{"molecule": "CC(c1ccc2c(c1)OC(F)(F)O2)S(=O)(=O)c1cccc(-n2nc(C(F)(F)F)c3c2C(Oc2ccc(C(=O)O)cc2)CCC3)c1", "note": "(stereo not drawn) [Example 118, 4-[[1-[3-[1-(2,2-difluoro-1,3-benzodioxol-5-yl)ethylsulfonyl]phenyl]-3-(trifluoromethyl)-4,5,6,7-tetrahydroindazol-7-yl]oxy]benzoic acid]", "RLUs: ΔF508-CFTR-HRP trafficking data normalized to the vehicle treated control (0.3% DMSO)": "C (RLU 0.0 μM-3.5 μM)"}
{"molecule": "CC(c1ccc2c(c1)OC(F)(F)O2)C1(c2cc(-n3nc(C(F)(F)F)c4c3C(Oc3ccc(C(=O)O)cc3)CCC4)ccn2)COC1", "note": "(stereo not drawn) [Example 119, 4-[[1-[2-[3-[1-(2,2-difluoro-1,3-benzodioxol-5-yl)ethyl]oxetan-3-yl]-4-pyridyl]-3-(trifluoromethyl)-4,5,6,7-tetrahydroindazol-7-yl]oxy]benzoic]", "RLUs: ΔF508-CFTR-HRP trafficking data normalized to the vehicle treated control (0.3% DMSO)": "C (RLU 0.0 μM-3.5 μM)"}
{"molecule": "C[C@H](Oc1cccc(-n2nc(C(F)(F)F)c3c2C(S(=O)(=O)N2CCC(C(=O)O)CC2)CCC3)c1)c1ccc2c(c1)OC(F)(F)O2", "note": "(stereo partly drawn) [Example 123]", "RLUs: ΔF508-CFTR-HRP trafficking data normalized to the vehicle treated control (0.3% DMSO)": "B (RLU 3.5 μM-5.0 μM)"}
